In one data set the target is Hsp82 (Saccharomyces cerevisiae, UniProt P02829). The experiment in a line: Hsp82 ATPase activity, pyruvate kinase/lactate dehydrogenase enzymatic coupling system. The data set is classed as biochemical. To be noted: PK/LDH coupled kinetic method, NADH absorbance 340 nm, 1 μM Hsp82, 250 μM ATP, 37° C. The text has this: The formation of ADP due to the ATPase activity of Hsp82 was utilized for developing another method of evaluating the enzymatic activity of this enzyme by the application of an enzymatic coupling system involving pyruvate kinase (PK) and lactate dehydrogenase (LDH). In this spectrophotometric method of the kinetic type, PK catalyses the formation of ATP and pyruvate from phosphoenol-pyruvate (PEP) and ADP produced by HSP82. The pyruvate formed, a substrate of LDH, is then converted to lactate in the presence of NADH. In this case, the decrease in the concentration of NADH, measured from the decrease in absorbance at a wavelength of 340 nm, is proportional to the concentration of ADP produced by HSP82. The test products are incubated in a reaction volume of 100 μl of buffer composed of 100 mM Hepes-NaOH (pH 7.5), 5 mM MgCl2, 1 mM DTT, 150 mM KCl, 0.3 mM NADH, 2.5 mM PEP and 250 μM ATP. This mixture is preincubated at 37° C. for 30 min before adding 3.77 units of LDH and 3.77 units of PK. The reaction is initiated by adding the product to be evaluated, at various concentrations, and Hsp82, at a concentration of 1 μM. Measurement of the enzymatic activity of Hsp82 is then performed continuously in a microplate reader, at 37° C., at a wavelength of 340 nm. The initial rate of the reaction is found by measuring the gradient of the tangent at the origin of the curve that is recorded. The enzymatic activity is expressed in μM of ADP formed per minute. The effect of the various products tested is expressed as percentage inhibition of ATPase activity according to the following code: • A: IC50<1 μM • B: 1 μM<IC50<10 μM • C: 10 μM<IC50<100 μM

Among the data in patent publication US8163750B2, “Fluorene derivatives, compositions containing the same and use thereof as inhibitors of the protein chaperone HSP 90” (Sanofi-Aventis, priority 2006, dated 2012) are melting point and IC50 values, retold here.

Hsp82, sequence (P02829 whole entry): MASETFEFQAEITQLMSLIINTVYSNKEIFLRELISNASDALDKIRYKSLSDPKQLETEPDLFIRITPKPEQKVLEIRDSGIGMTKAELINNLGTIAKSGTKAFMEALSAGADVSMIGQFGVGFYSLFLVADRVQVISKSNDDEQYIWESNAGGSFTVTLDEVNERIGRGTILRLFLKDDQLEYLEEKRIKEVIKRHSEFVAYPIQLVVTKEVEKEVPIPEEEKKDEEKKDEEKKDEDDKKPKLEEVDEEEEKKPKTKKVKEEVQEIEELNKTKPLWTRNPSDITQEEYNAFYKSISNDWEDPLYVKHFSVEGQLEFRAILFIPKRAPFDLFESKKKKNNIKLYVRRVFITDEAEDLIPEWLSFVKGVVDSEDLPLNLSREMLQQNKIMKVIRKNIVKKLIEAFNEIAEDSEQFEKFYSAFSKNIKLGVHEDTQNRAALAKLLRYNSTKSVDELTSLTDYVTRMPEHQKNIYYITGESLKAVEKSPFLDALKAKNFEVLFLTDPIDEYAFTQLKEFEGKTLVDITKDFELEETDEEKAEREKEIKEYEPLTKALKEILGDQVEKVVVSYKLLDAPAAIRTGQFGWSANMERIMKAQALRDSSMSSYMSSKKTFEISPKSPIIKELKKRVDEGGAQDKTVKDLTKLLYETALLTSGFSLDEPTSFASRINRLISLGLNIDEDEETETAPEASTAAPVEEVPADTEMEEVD

Regarding `O=C(NC1c2ccccc2-c2c(-c3nc4ccccc4o3)cccc21)c1ccnc2[nH]ccc12` (racemic) [Example 6, [4-(benzoxazol-2-yl)-9H-fluoren-9-(R,S)-yl]-amide of 1H-pyrrolo[2,3-b]pyridine-4-carboxylic acid], the melting point was greater than 260 °C. Also, at Hsp82, the IC50 is less than 1 µM.
The like results for `O=C(NC1c2ccccc2-c2c(-c3cn4ccccc4n3)cccc21)c1ccnc2[nH]ccc12` (racemic) [Example 19, 4-{imidazo[1,2-a]pyridin-2-yl}-9H-fluoren-9-(R,S)-yl-amide of 1H-pyrrolo[2,3-b]pyridine-4-carboxylic acid] were, in that order, 270 °C and less than 1 µM.
On to `O=C(NC1c2ccccc2-c2c(-c3cc4ccccc4o3)cccc21)c1ccnc2[nH]ccc12` (racemic) [Example 2, [4-(benzofuran-2-yl)-9H-fluoren-9(R,S)-yl)]-amide of 1H-pyrrolo[2,3-b]pyridine-4-carboxylic acid], for which the melting point was greater than 260 °C. On Hsp82, this molecule yielded a half-maximal inhibitory concentration (IC50) of 1 to 10 µM.
The like results for `O=C(NC1c2ccccc2-c2c(-c3cnc4ccccc4c3)cccc21)c1ccnc2[nH]ccc12` (racemic) [Example 3, [4-(quinolin-3-yl)-9H-fluoren-9(R,S)-yl)]-amide of 1H-pyrrolo[2,3-b]pyridine-4-carboxylic acid] were, in that order, greater than 260 °C and 1 to 10 µM.
`O=C(NC1c2ccccc2-c2c(-c3ccc(N4CCOCC4)nc3)cccc21)c1ccnc2[nH]ccc12` (racemic) [Example 14, [4-(2-morpholino-pyridin-5-yl)-9H-fluoren-9(R,S)-yl]-amide of 1H-pyrrolo[2,3-b]pyridine-4-carboxylic acid]: on Hsp82, the IC50 fell in the range of 1 to 10 µM.
`O=C(NC1c2ccccc2-c2c(-c3ccc(F)nc3)cccc21)c1ccnc2[nH]ccc12` (racemic) [Example 4, [4-(6-fluoro-pyridin-3-yl)-9H-fluoren-9-(R,S)-yl]-amide of 1H-pyrrolo[2,3-b]pyridine-4-carboxylic acid] came in with a melting point greater than 260 °C. In addition, the IC50 against Hsp82 was 1 to 10 µM.
In the case of `O=C(NC1c2ccccc2-c2c(-c3cnc4ccccc4c3)cccc21)c1c(Br)cnc2[nH]cnc12` (racemic) [Example 13, [4-(quinolin-3-yl)-9H-fluoren-9(R,S)-yl]-amide of 6-bromo-3H-imidazo[4,5-b]pyridine-7-carboxylic acid], the 50% inhibitory concentration (IC50) against Hsp82 was less than 1 µM.
Molecule `Nc1ncc(Cl)c(C(=O)NC2c3ccccc3-c3c(-c4cnc5ccccc5c4)cccc32)n1` (racemic) [Example 15, [4-(quinolin-3-yl)-9H-fluoren-9(R,S)-yl]-amide of 2-amino-5-chloro-pyrimidine-4-carboxylic acid] gave an IC50 on Hsp82 of less than 1 µM.
For the molecule `O=C(NC1c2ccccc2-c2c(-c3cncnc3)cccc21)c1ccnc2[nH]ccc12` (racemic) [Example 7, [4-(pyrimidin-5-yl)-9H-fluoren-9-(R,S)yl]-amide of 1H-pyrrolo[2,3-b]pyridine-4-carboxylic acid], the melting point was greater than 260 °C. At Hsp82, this molecule registered an IC50 of less than 1 µM.
`O=C(NC1c2ccccc2-c2c(C3=Nc4ccccc4OC3)cccc21)c1ccnc2[nH]ccc12` (racemic) [Example 10, [4-(1,4-benzoxazin-2H-3-yl)-9H-fluoren-9(R,S)-yl]-amide of 1H-pyrrolo[2,3-b]pyridine-4-carboxylic acid]: the IC50 on Hsp82 was in the range of 1 to 10 µM.
`O=C(NC1c2ccccc2-c2c(C(=O)n3ncc4ccccc43)cccc21)c1ccnc2[nH]ccc12` (racemic) [Example 16, [4-(indazole-1-carbonyl)-9H-fluoren-9(R,S)-yl]-amide of 1H-pyrrolo[2,3-b]pyridine-4-carboxylic acid] displayed a melting point of 220 °C. For the same molecule, at Hsp82, the IC50 fell in the range of 1 to 10 µM.
For the molecule `O=C(NC1c2ccccc2-c2c(-c3cnc4[nH]ccc4c3)cccc21)c1ccnc2[nH]ccc12` (racemic) [Example 17, [4-(1H-pyrrolo[2,3-b]pyridin-5-yl)-9H-fluoren-9(R,S)-yl]-amide of 1H-pyrrolo[2,3-b]pyridine-4-carboxylic acid], the IC50 at Hsp82 was less than 1 µM.
Still for that read-out and setting: the same measure for `O=C(NC1c2ccccc2-c2c(-c3cc4ccccc4[nH]3)cccc21)c1ccnc2[nH]ccc12` (racemic) [Example 5, [4-(1H-indol-2-yl)-9H-fluoren-9-(R,S)-yl]-amide of 1H-pyrrolo[2,3-b]pyridine-4-carboxylic acid]: less than 1 µM; for `O=C(NC1c2ccccc2-c2c(-c3cnc4c(c3)CCCN4)cccc21)c1ccnc2[nH]ccc12` (racemic) [Example 18, [4-(5,6,7,8-tetrahydro-1,8-naphthyridin-3-yl)-9H-fluoren-9(R,S)-yl]-amide of 1H-pyrrolo[2,3-b]pyridine-4-carboxylic acid]: 1 to 10 µM.
With `O=C(NC1c2ccccc2-c2c(-c3ccc4ccccc4n3)cccc21)c1ccnc2[nH]ccc12` (racemic) [Example 8, [4-(quinolin-2-yl)-9H-fluoren-9-(R,S)-yl]-amide of 1H-pyrrolo[2,3-b]pyridine-4-carboxylic acid], the melting point was 260 °C. This molecule also yielded a concentration for half-maximal inhibition (IC50) against Hsp82 of 1 to 10 µM.
Consider `O=C(NC1c2ccccc2-c2c(-c3cnc4ccccc4n3)cccc21)c1ccnc2[nH]ccc12` (racemic) [Example 12, [4-(quinoxalin-2-yl)-9H-fluoren-9(R,S)-yl]-amide of 1H-pyrrolo[2,3-b]pyridine-4-carboxylic acid], for which the half-maximal inhibitory concentration (IC50) against Hsp82 is 1 to 10 µM.
Consider `O=C(NC1c2ccccc2-c2c(-c3cnc4ccccc4c3)cccc21)c1c(Br)cnc2[nH]cnc12` (single isomer, unassigned) [Example 21], for which the IC50 at Hsp82 was less than 1 µM.
On the same count and under the same terms, the same measure for `O=C(NC1c2ccccc2-c2c(-c3nc4ccccn4n3)cccc21)c1ccnc2[nH]ccc12` (racemic) [Example 9, (4-[1.2.4]triazolo[1,5-a]pyridin-2-yl-9H-fluoren-9(R,S)-yl)-amide of 1H-pyrrolo[2,3-b]pyridine-4-carboxylic acid]: 1 to 10 µM; for `O=C(NC1c2ccccc2-c2c(-c3cnc4ccccc4c3)cccc21)c1ncnc2[nH]ccc12` (racemic) [Example 11, [4-(quinolin-3-yl)-9H-fluoren-9(R,S)-yl]-amide of 7H-pyrrolo[2,3-c]pyrimidine-4-carboxylic acid]: less than 1 µM.
Consider `O=C(NC1c2ccccc2-c2c(-c3cnc4ccccc4c3)cccc21)c1c(Br)cnc2[nH]cnc12` (single isomer, unassigned) [Example 20], for which the IC50 at Hsp82 is 10 to 100 µM.
On to `Nc1ncc(Cl)c(C(=O)NC2c3ccccc3-c3c(-c4ncc[nH]4)cccc32)n1` (racemic) [Example 1, [4-(1H-imidazol-2-yl)-9H-fluoren-9(R,S)-yl]-amide of 2-amino-5-chloro-pyrimidine-4-carboxylic acid], for which the IC50 against Hsp82 fell in the range of 1 to 10 µM.

A word on the melting point: it is the temperature of the solid-liquid transition. One may read the IC50 as the concentration at which inhibition is half-maximal. Read a low IC50 as greater potency in that assay.
